Laboratory results: patent publication US20230077362A1 (CORTEVA AGRISCIENCE LLC, priority 2019, published 2023)
Read-outs that look alike come from different tables or passages of the source.

Columns and labels:
Format in all cases: in vivo
[1] = tested on: Beet Armyworm (Spodoptera exigua) ("BAW"), second instar larvae; test: Bioassay on beet armyworm (BAW), 128-well diet tray assay; conditions: Spodoptera exigua
Procedure, shortened: (§1)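 Second-instar larvae on diet in 128-well trays, covered and held at 25° C, 14:10 light-dark, for five to seven days. Percent mortality scored per well and averaged over eight wells; activity reported as a rating category.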

[2] = tested on: Cabbage Looper (Trichoplusia ni) ("CL"), second instar larvae; test: Bioassay on cabbage looper (CL), 128-well diet tray assay; conditions: Trichoplusia ni
Procedure, shortened: as §1

[3] = tested on: Green Peach Aphid ("GPA") (Myzus persicae), wingless adult and nymph stages; test: Bioassay on green peach aphid (GPA), foliar spray on infested cabbage seedlings; conditions: Myzus persicae, foliar, 72 h
Procedure, shortened: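 Cabbage seedlings with 2-3 true leaves, infested one day earlier with 20-50 wingless adult and nymph GPA, sprayed to runoff on both leaf sides; solvent check held 20% acetone/methanol (1:1). Live aphids counted after three days at about 25° C; corrected % control = 100*(X−Y)/X versus solvent check.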

[4] = read-out: BAW (Biological Results, rating)
[5] = read-out: CL (Biological Results, rating)
[6] = read-out: GPA (Biological Results, rating)

Molecule `COC(C)c1ccc(C)cc1N1C(=O)CS/C1=N\C(=O)Nc1ccc(-c2ncn(-c3ccc(SC(F)(F)F)cc3)n2)cc1` (stereo not drawn) [Compound J350, (Z)-1-(3-(2-(1-methoxyethyl)-5-methylphenyl)-4-oxothiazolidin-2-ylidene)-3-(4-(1-(4-((trifluoromethyl)thio)phenyl)-1H-1,2,4-triazol-3-yl)phenyl)urea] has a pest or weed control at 50 µg/cm2 [1, 4] of 50 to 100%, a pest or weed control at 50 µg/cm2 [2, 5] of 50 to 100% and a pest or weed control at 200 µg/mL [3, 6] of 0 to 80%.
In the case of `Cc1ccc(OCCC(F)(F)F)c(N2C(=O)CS/C2=N\C(=O)Nc2ccc(-c3ncn(-c4cccc(C(F)(F)F)c4)n3)cc2F)c1` [Compound J142, (Z)-1-(2-Fluoro-4-(1-(3-(trifluoromethyl)phenyl)-1H-1,2,4-triazol-3-yl)phenyl)-3-(3-(5-methyl-2-(3,3,3-trifluoropropoxy)phenyl)-4-oxothiazolidin-2-ylidene)urea], the pest or weed control at 50 µg/cm2 [1, 4] was 50 to 100%, the pest or weed control at 50 µg/cm2 [2, 5] was 50 to 100% and the pest or weed control at 200 µg/mL [3, 6] was 0 to 80%.
Molecule `CCc1cc(-c2ncn(-c3ccc(OC(F)(F)F)cc3)n2)ccc1NC(=O)/N=C1\SCC(=O)N1c1cc(C)ccc1C(C)C` [Compound J70, (Z)-1-(2-Ethyl-4-(1-(4-(trifluoromethoxy)phenyl)-1H-1,2,4-triazol-3-yl)phenyl)-3-(3-(2-isopropyl-5-methylphenyl)-4-oxothiazolidin-2-ylidene)urea] has a pest or weed control at 50 µg/cm2 [1, 4] of 50 to 100%, a pest or weed control at 50 µg/cm2 [2, 5] of 50 to 100% and a pest or weed control at 200 µg/mL [3, 6] of 0 to 80%.
`COC(C)c1ccccc1N1C(=O)CS/C1=N\C(=O)Nc1ccc(-c2ncn(-c3ccc(OC(F)(F)F)cc3)n2)cc1F` (stereo not drawn) [Compound J87, (Z)-1-(2-Fluoro-4-(1-(4-(trifluoromethoxy)phenyl)-1H-1,2,4-triazol-3-yl)phenyl)-3-(3-(2-(1-methoxyethyl)phenyl)-4-oxothiazolidin-2-ylidene)urea] showed a pest or weed control at 50 µg/cm2 [1, 4] of 50 to 100%, a pest or weed control at 50 µg/cm2 [2, 5] of 50 to 100% and a pest or weed control at 200 µg/mL [3, 6] of 0 to 80%.
`Cc1ccc(OCC(F)(F)F)c(N2C(=O)CS/C2=N\C(=O)Nc2ccc(-c3ncn(-c4ccc(SC(F)(F)F)cc4)n3)cc2F)c1` [Compound J223, (Z)-1-(2-Fluoro-4-(1-(4-((trifluoromethyl)thio)phenyl)-1H-1,2,4-triazol-3-yl)phenyl)-3-(3-(5-methyl-2-(2,2,2-trifluoroethoxy)phenyl)-4-oxothiazolidin-2-ylidene)urea] was tested, and the pest or weed control at 50 µg/cm2 [1, 4] was 50 to 100%, the pest or weed control at 50 µg/cm2 [2, 5] was 50 to 100% and the pest or weed control at 200 µg/mL [3, 6] was 0 to 80%.
For `Cc1ccc(-n2cnc(-c3ccc(NC(=O)/N=C4\SCC(=O)N4c4cc(C)ccc4OCCC(F)(F)F)c(F)c3)n2)cc1` [Compound J151, (Z)-1-(2-Fluoro-4-(1-(p-tolyl)-1H-1,2,4-triazol-3-yl)phenyl)-3-(3-(5-methyl-2-(3,3,3-trifluoropropoxy)phenyl)-4-oxothiazolidin-2-ylidene)urea], the pest or weed control at 50 µg/cm2 [1, 4] was 50 to 100%, the pest or weed control at 50 µg/cm2 [2, 5] was 50 to 100% and the pest or weed control at 200 µg/mL [3, 6] was 0 to 80%.
`Cc1ccc(OCCC(F)(F)F)c(N2C(=O)CS/C2=N\C(=O)Nc2ccc(-c3ncn(-c4ccc(OC(F)(F)F)cc4)n3)cc2)c1` [Compound J316, (Z)-1-(3-(5-Methyl-2-(3,3,3-trifluoropropoxy)phenyl)-4-oxothiazolidin-2-ylidene)-3-(4-(1-(4-(trifluoromethoxy)phenyl)-1H-1,2,4-triazol-3-yl)phenyl)urea] was tested, and the pest or weed control at 50 µg/cm2 [1, 4] was 50 to 100%, the pest or weed control at 50 µg/cm2 [2, 5] was 50 to 100% and the pest or weed control at 200 µg/mL [3, 6] was 0 to 80%.
`CN(C)c1ccc(OCCC(F)(F)F)c(N2C(=O)CS/C2=N\C(=O)Nc2ccc(-c3ncn(-c4ccc(OC(F)(F)F)cc4)n3)cc2F)c1` [Compound J105, (Z)-1-(3-(5-(Dimethylamino)-2-(3,3,3-trifluoropropoxy)phenyl)-4-oxothiazolidin-2-ylidene)-3-(2-fluoro-4-(1-(4-(trifluoromethoxy)phenyl)-1H-1,2,4-triazol-3-yl)phenyl)urea] was tested, and the pest or weed control at 50 µg/cm2 [1, 4] was 50 to 100%, the pest or weed control at 50 µg/cm2 [2, 5] was 50 to 100% and the pest or weed control at 200 µg/mL [3, 6] was 0 to 80%.
`Cc1ccc(C(C)C)c(N2C(=O)CS/C2=N\C(=O)Nc2ccc(-c3ncn(-c4ccc(OC(F)(F)F)cc4)n3)cc2F)c1` [Compound J19, (Z)-1-(2-Fluoro-4-(1-(4-(trifluoromethoxy)phenyl)-1H-1,2,4-triazol-3-yl)phenyl)-3-(3-(2-isopropyl-5-methylphenyl)-4-oxothiazolidin-2-ylidene)urea] showed a pest or weed control at 50 µg/cm2 [1, 4] of 50 to 100%, a pest or weed control at 50 µg/cm2 [2, 5] of 50 to 100% and a pest or weed control at 200 µg/mL [3, 6] of 0 to 80%.
`COC(=O)c1ccc(C(C)C)c(N2C(=O)CS/C2=N\C(=O)Nc2ccc(-c3ncn(-c4ccc(OC(F)(F)F)cc4)n3)cc2F)c1` [Compound J104, Methyl (Z)-3-(2-(((2-fluoro-4-(1-(4-(trifluoromethoxy)phenyl)-1H-1,2,4-triazol-3-yl)phenyl)carbamoyl)imino)-4-oxothiazolidin-3-yl)-4-isopropylbenzoate] showed a pest or weed control at 50 µg/cm2 [1, 4] of 50 to 100%, a pest or weed control at 50 µg/cm2 [2, 5] of 50 to 100% and a pest or weed control at 200 µg/mL [3, 6] of 0 to 80%.
For `CC(C)c1ccc(N(C)C)cc1N1C(=O)CS/C1=N\C(=O)Nc1ccc(-c2ncn(-c3ccc(OC(F)(F)F)cc3)n2)cc1F` [Compound J318, (Z)-1-(3-(5-(Dimethylamino)-2-isopropylphenyl)-4-oxothiazolidin-2-ylidene)-3-(2-fluoro-4-(1-(4-(trifluoromethoxy)phenyl)-1H-1,2,4-triazol-3-yl)phenyl)urea], the pest or weed control at 50 µg/cm2 [1, 4] was 50 to 100%, the pest or weed control at 50 µg/cm2 [2, 5] was 50 to 100% and the pest or weed control at 200 µg/mL [3, 6] was 0 to 80%.
For `Cc1ccc(OCCC(F)(F)F)c(N2C(=O)CS/C2=N\C(=O)Nc2ccc(-c3ncn(-c4cccc(OC(F)(F)F)c4)n3)cc2C)c1` [Compound J138, (Z)-1-(3-(5-Methyl-2-(3,3,3-trifluoropropoxy)phenyl)-4-oxothiazolidin-2-ylidene)-3-(2-methyl-4-(1-(3-(trifluoromethoxy)phenyl)-1H-1,2,4-triazol-3-yl)phenyl)urea], the pest or weed control at 50 µg/cm2 [1, 4] was 50 to 100%, the pest or weed control at 50 µg/cm2 [2, 5] was 50 to 100% and the pest or weed control at 200 µg/mL [3, 6] was 0 to 80%.
For `CC(C)c1ccc(N(C)C)cc1N1C(=O)CS/C1=N\C(=O)Nc1ccc(-c2ncn(-c3cccc(C(F)(F)F)c3)n2)cc1` [Compound J325, (Z)-1-(3-(5-(Dimethylamino)-2-isopropylphenyl)-4-oxothiazolidin-2-ylidene)-3-(4-(1-(3-(trifluoromethyl)phenyl)-1H-1,2,4-triazol-3-yl)phenyl)urea], the pest or weed control at 50 µg/cm2 [1, 4] was 50 to 100%, the pest or weed control at 50 µg/cm2 [2, 5] was 50 to 100% and the pest or weed control at 200 µg/mL [3, 6] was 0 to 80%.
`Cc1ccc(OCCC(F)(F)F)c(N2C(=O)CS/C2=N\C(=O)Nc2ccc(-c3ncn(-c4cccc(C(F)(F)F)c4)n3)cc2)c1` [Compound J326, (Z)-1-(3-(5-Methyl-2-(3,3,3-trifluoropropoxy)phenyl)-4-oxothiazolidin-2-ylidene)-3-(4-(1-(3-(trifluoromethyl)phenyl)-1H-1,2,4-triazol-3-yl)phenyl)urea] gave a pest or weed control at 50 µg/cm2 [1, 4] of 50 to 100%, a pest or weed control at 50 µg/cm2 [2, 5] of 50 to 100% and a pest or weed control at 200 µg/mL [3, 6] of 0 to 80%.
`CCc1cc(-c2ncn(-c3ccc(OC(F)(F)F)cc3)n2)ccc1NC(=O)/N=C1\SCC(=O)N1c1cc(C)ccc1OCCC(F)(F)F` [Compound J73, (Z)-1-(2-Ethyl-4-(1-(4-(trifluoromethoxy)phenyl)-1H-1,2,4-triazol-3-yl)phenyl)-3-(3-(5-methyl-2-(3,3,3-trifluoropropoxy)phenyl)-4-oxothiazolidin-2-ylidene)urea] was tested, and the pest or weed control at 50 µg/cm2 [1, 4] was 50 to 100%, the pest or weed control at 50 µg/cm2 [2, 5] was 50 to 100% and the pest or weed control at 200 µg/mL [3, 6] was 0 to 80%.
Work on `Cc1ccc(OCCC(F)(F)F)c(N2C(=O)CS/C2=N\C(=O)Nc2ccc(-c3ncn(-c4ccc(C(F)(F)F)cc4)n3)cc2)c1` [Compound J315, (Z)-1-(3-(5-Methyl-2-(3,3,3-trifluoropropoxy)phenyl)-4-oxothiazolidin-2-ylidene)-3-(4-(1-(4-(trifluoromethyl)phenyl)-1H-1,2,4-triazol-3-yl)phenyl)urea] yielded a pest or weed control at 50 µg/cm2 [1, 4] of 50 to 100%, a pest or weed control at 50 µg/cm2 [2, 5] of 50 to 100% and a pest or weed control at 200 µg/mL [3, 6] of 0 to 80%.
Work on `COc1ccc(CC(F)(F)F)c(N2C(=O)CS/C2=N\C(=O)NCC(F)c2ccc(-c3ncn(-c4ccc(OC(F)(F)F)cc4)n3)cc2)c1` (stereo not drawn) [Compound H14] yielded a pest or weed control at 50 µg/cm2 [1, 4] of 50 to 100%, a pest or weed control at 50 µg/cm2 [2, 5] of 50 to 100% and a pest or weed control at 200 µg/mL [3, 6] of 0 to 80%.
With `Cc1ccc(C(C)C)c(N2C(=O)C(Cl)S/C2=N\C(=O)Nc2ccc(-c3ncn(-c4ccc(OC(F)(F)F)cc4)n3)cc2)c1` (stereo not drawn) [Compound J314, (Z)-1-(5-Chloro-3-(2-isopropyl-5-methylphenyl)-4-oxothiazolidin-2-ylidene)-3-(4-(1-(4-(trifluoromethoxy)phenyl)-1H-1,2,4-triazol-3-yl)phenyl)urea] the pest or weed control at 50 µg/cm2 [1, 4] was 50 to 100%, the pest or weed control at 50 µg/cm2 [2, 5] was 50 to 100% and the pest or weed control at 200 µg/mL [3, 6] was 0 to 80%.
Molecule `COC(C)c1ccc(C#N)cc1N1C(=O)CS/C1=N\C(=O)Nc1ccc(-c2cn(-c3ccc(S(=O)(=O)C(F)(F)F)cc3)cn2)cc1F` (stereo not drawn) [Compound J652, (Z)-1-(3-(5-Cyano-2-(1-methoxyethyl)phenyl)-4-oxothiazolidin-2-ylidene)-3-(2-fluoro-4-(1-(4-((trifluoromethyl)sulfonyl)phenyl)-1H-imidazol-4-yl)phenyl)urea] has a pest or weed control at 50 µg/cm2 ([1]; read-out: BAW rating) of 50 to 100%, a pest or weed control at 50 µg/cm2 ([2]; read-out: CL rating) of 50 to 100% and a pest or weed control at 200 µg/mL ([3]; read-out: GPA rating) of 0 to 80%.
With `CCOC(C)c1ccc(C)cc1N1C(=O)CS/C1=N\C(=O)Nc1ccc(-c2ncn(-c3ccc(SC(F)(F)F)cc3)n2)cc1F` (stereo not drawn) [Compound J230, (Z)-1-(3-(2-(1-Ethoxyethyl)-5-methylphenyl)-4-oxothiazolidin-2-ylidene)-3-(2-fluoro-4-(1-(4-((trifluoromethyl)thio)phenyl)-1H-1,2,4-triazol-3-yl)phenyl)urea] the pest or weed control at 50 µg/cm2 [1, 4] was 50 to 100%, the pest or weed control at 50 µg/cm2 [2, 5] was 50 to 100% and the pest or weed control at 200 µg/mL [3, 6] was 0 to 80%.
